Results as given in patent publication US20170027952A1, “ASSOCIATION BETWEEN 3-[(3--2-OXO-2,3-DIHYDRO-1H-INDOL-5-YL)METHYL]-1,3-THIAZOLIDINE-2,4-DIONE AND AN EGFR TYR KINASE INHIBITOR” (LES LABORATOIRES SERVIER, priority 2015, published 2017).
Where a name gives a salt, the structure may show the parent alone.

Assays:
[1] = tested on: erlotinib-resistant cell line HCC827; details: resistant line HCC827, compound on its own, 100 nM
Method: A cell viability test allowing the anti-proliferative ability of the anti-tumour compounds to be measured was used. The chosen cell line is line HCC827, a non-small cell lung cancer line that depends upon EGFR for its survival. […] The cells are seeded (150 μl) at the appropriate density in the wells of 96-well plates 2 days prior to the experiment. One column contains the untreated control cells representing 100% proliferation. The others are incubated with the test products for 4 doubling times.

[2] = tested on: erlotinib-resistant HCC827 tumour; assay: Inhibition of the growth of the erlotinib-resistant HCC827 tumour; assay type: in vivo, female SCID mice; details: d19, end of treatments, compounds on their own, oral daily for 19 days; erlotinib 12.5 mg/kg, compound A 50 mg/kg
Method: The tumours were allocated at random into groups of eight mice when the tumour volume had reached approximately 200 mm^3. […] The tumour volumes were measured two to three times each week using a sliding caliper. The median tumour volumes with the interquartile ranges are recorded on the graph.

O=C1Nc2ccc(CN3C(=O)CSC3=O)cc2C1=Cc1cc(CN2CCOCC2)c[nH]1 [compound A, 3-[(3-{[4-(4-morpholinyl-methyl)-1H-pyrrol-2-yl]methylene}-2-oxo-2,3-dihydro-1H-indol-5-yl)methyl]-1,3-thiazolidine-2,4-dione hydrochloride]
effect on the viability [1]: no effect on the viability
inhibition of the growth [2]: 83%
